Data: US9493464B2, “Wee1 degradation inhibitors” (The Scripps Research Institute, priority 2012, dated 2016)
Several values for one entry are separate records, joined by “and”; a condition that tells them apart may be missing. Equal values may be shown once.

Legend:
[1] = test system: cerebellar granule cell progenitors (GCPs); assay: In vitro proliferation of cerebellar granule cell progenitors (3H-thymidine uptake); assay type: cell-based, mouse; conditions: 24 hours; result in words
Experimental: GCPs were incubated with DMSO, 5 μM D4476 (known CK1δ and CK1ε inhibitor), or 50 μM D4476 and processed for ^3H-thymidine incorporation after 24 hours. A representative experiment performed in triplicate is shown.

[2] = test system: K328M-Wee1-luciferase; assay: Wee1-luciferase assay (stabilization of K328M-Wee1-luciferase); assay type: cell-based; conditions: for % Inhibition, Wee1 Degradation: at 250 nM, reported relative to SR-1277 = 100%; for EC50: read-out: Wee1 Stabilization
From the text: Steady-state level of K328M-Wee1-Luciferase (K328M-Wee1-Luc) was divided by Luciferase level (Luc) and plotted.
(§1) Similar assays have previously been described; PubChem AID 1807.

[3] = test system: Luciferase; assay: Luciferase alone control (PGL3 vector); assay type: cell-based; conditions: HeLa cells; result in words
Experimental: The percentage of signal relative to the proteasome inhibitor MG132 is shown. […] A Western blot is shown of endogenous Wee1 or Skp1 (loading control) of HeLa cells incubated with 5 μM of indicated compounds for 24 hours. […] The 0 time point was set to 100%. […] The extent of degradation was measured as in FIG. D.
5 μM of indicated compounds were incubated with K328M-Wee1-Luciferase or Luciferase expressing HeLa cells and the extent of stabilization measured after adding Brite-lite. MG132 was used as a positive control.
as §1

[4] = target: T1, FLT3 (Homo sapiens, UniProt P36888); assay: In vitro kinase assay, FLT3 (Reaction Biology Corporation); assay type: biochemical; conditions: determined by Reaction Biology Corporation; read-out: IC50 FLT3
T1 construct: Reaction Biology Corporation (contract assay)
T1 sequence (P36888 27-993): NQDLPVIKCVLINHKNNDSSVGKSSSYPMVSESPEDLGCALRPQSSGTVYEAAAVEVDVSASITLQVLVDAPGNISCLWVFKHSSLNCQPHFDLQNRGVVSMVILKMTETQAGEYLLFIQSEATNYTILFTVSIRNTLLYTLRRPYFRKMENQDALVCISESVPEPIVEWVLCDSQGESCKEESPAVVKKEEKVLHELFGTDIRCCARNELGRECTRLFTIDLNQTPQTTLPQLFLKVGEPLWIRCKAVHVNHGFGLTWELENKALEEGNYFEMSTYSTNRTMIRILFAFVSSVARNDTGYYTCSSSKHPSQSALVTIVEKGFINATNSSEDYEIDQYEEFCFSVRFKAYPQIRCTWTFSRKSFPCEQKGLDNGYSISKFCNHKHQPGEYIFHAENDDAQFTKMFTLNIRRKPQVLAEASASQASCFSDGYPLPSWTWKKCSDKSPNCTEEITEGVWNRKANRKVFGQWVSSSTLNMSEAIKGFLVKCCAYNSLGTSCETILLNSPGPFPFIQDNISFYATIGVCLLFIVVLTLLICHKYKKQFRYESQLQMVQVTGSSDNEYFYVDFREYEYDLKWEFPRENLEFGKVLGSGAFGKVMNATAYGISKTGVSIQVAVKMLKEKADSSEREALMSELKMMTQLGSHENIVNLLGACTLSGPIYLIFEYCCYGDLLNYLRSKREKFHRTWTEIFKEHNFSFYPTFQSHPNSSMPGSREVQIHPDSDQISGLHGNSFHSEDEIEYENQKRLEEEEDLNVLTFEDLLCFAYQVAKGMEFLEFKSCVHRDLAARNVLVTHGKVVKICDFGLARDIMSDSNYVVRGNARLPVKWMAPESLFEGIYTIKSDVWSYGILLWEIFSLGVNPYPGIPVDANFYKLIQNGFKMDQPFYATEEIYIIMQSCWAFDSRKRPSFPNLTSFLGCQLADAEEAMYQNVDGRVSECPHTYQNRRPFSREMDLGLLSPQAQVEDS
Experimental: (§2) Compounds were tested in 10-dose IC50 mode with 3-fold serial dilution starting at 50 μM. […] Reactions were carried out at 10 μM ATP. Average and standard deviations of reactions carried out in triplicate are shown.
(§3) In vitro kinase assay to detect CK1 or FLT3 activity: CK1 and FLT3 assays as well as complete kinase profile of 296 kinases was performed by Reaction Biology Corporation. For FLT3 20 μM final Abltide was used, sequence: [[…]]. For CK1 (all isoforms) 20 μM CK1 tide was used, sequence: [KRRRAL[pS]VASLPGL] in a standard kinase assay with ^32P-ATP and purified kinase. Incorporation of ^32P-ATP into the peptide was measured after a filter-binding assay. In-house CK1d inhibition assays were performed using a standard homogenous time-resolved fluorescence resonance energy transfer (TR-FRET) format in 50 mM Hepes, pH 7.0, 2.5 mM MgCl2, 0.1 mg/ml bovine serum albumin, 1 mM DL-dithiothreitol, 0.01% Triton X-100 (all from Sigma-Aldrich). Briefly, the CK1δ substrate (DEKTDDE, containing CK1 consensus sequence; 4 μL of a 500 nM stock solution) is labeled with a small Ulight acceptor dye (PerkinElmer). In the presence of 10 μL of 10 nM CK1δ, the Ulight peptide is phosphorylated at a single amino acid that is specifically recognized by a europium chelate (Eu)-labeled phosphospecific antibody. Assays were performed in the presence of 2 μL of compound at different (measured) concentrations, and reactions were stopped by adding 10 μL of 4 nM Eu-anti-p-Topo-IIa (PerkinElmer) in Lance Detection Buffer (Perkin Elmer). Upon excitation of the Eu-labeled antibody, energy is transferred to the acceptor dye resulting in the emission of detected light at 665 nm.

[5] = target: CK1δ (Homo sapiens, UniProt P48730); assay: In vitro kinase assay, CK1d, 32P-ATP filter binding (Reaction Biology Corporation); assay type: biochemical; conditions: footnote a: determined by Reaction Biology Corporation; read-out: IC50 CK1d
CK1δ, sequence (P48730 whole entry): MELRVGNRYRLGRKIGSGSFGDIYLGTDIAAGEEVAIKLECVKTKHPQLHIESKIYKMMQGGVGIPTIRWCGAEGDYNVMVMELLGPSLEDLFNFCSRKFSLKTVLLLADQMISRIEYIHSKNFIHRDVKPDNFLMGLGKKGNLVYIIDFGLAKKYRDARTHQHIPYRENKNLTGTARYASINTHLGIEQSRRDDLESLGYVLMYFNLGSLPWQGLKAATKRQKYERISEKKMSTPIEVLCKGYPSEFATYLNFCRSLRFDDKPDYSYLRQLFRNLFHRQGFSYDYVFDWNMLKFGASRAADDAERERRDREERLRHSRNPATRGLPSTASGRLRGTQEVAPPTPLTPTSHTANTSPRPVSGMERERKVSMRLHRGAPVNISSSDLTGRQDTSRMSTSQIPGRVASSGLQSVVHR
Experimental: as §2, §3

[6] = test system: RXF393 (renal); assay: NCI Dose Growth Inhibition assay (NCI-60); assay type: cell-based; conditions: Homo sapiens, RXF 393; RXF393 (renal); read-out: GI50
Experimental: (§4) Table 3, below, illustrates the activity of some of the compounds of the present invention in the National Cancer Institute's Dose Growth Inhibition assay against several human tumor cell lines selected from the NCI-60 panel.
(§5) NCI-60 Cancer Cell Line Screening was performed by the National Cancer Institute, using the procedures described on their website (http://dtp.nci.nih.gov/branches/btb/ivelsp.html)

[7] = test system: A498 (renal); assay: NCI Dose Growth Inhibition assay (NCI-60); assay type: cell-based; conditions: Homo sapiens; A498 (renal); read-out: GI50
Experimental: as §4, §5

[8] = test system: SNB-75 (CNS); assay: NCI Dose Growth Inhibition assay (NCI-60); assay type: cell-based; conditions: Homo sapiens; SNB-75 (CNS); read-out: GI50
Experimental: as §4, §5

[9] = test system: UACC-62 (melanoma); assay: NCI Dose Growth Inhibition assay (NCI-60); assay type: cell-based; conditions: Homo sapiens; UACC-62 (melanoma); read-out: GI50
Experimental: as §4, §5

[10] = test system: MDA-MB-468 (breast); assay: NCI Dose Growth Inhibition assay (NCI-60); assay type: cell-based; conditions: Homo sapiens; MDA-MB-468 (breast); read-out: GI50
Experimental: as §4, §5

[11] = test system: COLO 205 (colon); assay: NCI Dose Growth Inhibition assay (NCI-60); assay type: cell-based; conditions: Homo sapiens; COLO 205 (colon); read-out: GI50
Experimental: as §4, §5

Row | Compound | IC50 [4] | IC50 [5] | % Inhibition, Wee1 Degradation [2] | also measured
1 | NC(=O)c1ccc(-c2nc(-c3ccc4c(c3)OCCO4)c(-c3ccccn3)[nH]2)cc1 [Compound D4476, reference compound] | – | – | – | inhibition of GCP proliferation (3H-thymidine) [1]: inhibited GCP proliferation; stabilization of K328M-Wee1-luciferase ([2]; HeLa cells, result in words): stabilizes K328M-Wee1-luciferase; Luciferase levels [3]: does not affect Luciferase levels
2 | FC(F)(F)c1cccc2[nH]c(CNc3nc(N4CCOCC4)nc4c3ncn4-c3ccsc3)nc12 [SR-1272] | 262 nM | 128 nM | 10.8% | –
3 | FC(F)(F)c1ccc2[nH]c(CNc3nc(N4CCOCC4)nc4c3ncn4-c3ccsc3)nc2c1 [SR-1273] | 509 nM | 13 nM | 46.3% | –
4 | Clc1ccc2[nH]c(CNc3nc(N4CCOCC4)nc4c3ncn4-c3ccsc3)nc2c1 [SR-1274] | 301 nM | 105 nM | 101.2% | EC50 [2]: 164 nM
5 | Fc1ccc2[nH]c(CNc3nc(N4CCOCC4)nc4c3ncn4-c3ccsc3)nc2c1 [SR-1275] | 79 nM | 50 nM | 81.4% | –
6 | N#Cc1ccc2[nH]c(CNc3nc(N4CCOCC4)nc4c3ncn4-c3ccsc3)nc2c1 [SR-1276] | 62 nM | 11 nM | 85.9% | –
7 | O=[N+]([O-])c1ccc2[nH]c(CNc3nc(N4CCOCC4)nc4c3ncn4-c3ccsc3)nc2c1 [SR-1278] | 240 nM | 21 nM | 18.7% | –
8 | COc1ccc2[nH]c(CNc3nc(N4CCOCC4)nc4c3ncn4-c3ccsc3)nc2c1 [SR-1279] | 14 nM | 17 nM | 79.5% | –
9 | c1ccc2cc3[nH]c(CNc4nc(N5CCOCC5)nc5c4ncn5-c4ccsc4)nc3cc2c1 [SR-1280] | 975 nM | 129 nM | 48.3% | –
10 | CCOC(=O)c1cccc2[nH]c(CNc3nc(N4CCOCC4)nc4c3ncn4-c3ccsc3)nc12 [SR-1282] | 548 nM | 361 nM | 97.3% | EC50 [2]: 207 nM
11 | CC(C)n1cnc2c(NCc3nc4c([N+](=O)[O-])cccc4[nH]3)nc(N3CCOCC3)nc21 [SR-1284] | 28000 nM | 815 nM | 111.2% | EC50 [2]: 201 nM
12 | FC(F)(F)c1cc(Br)c2nc(CNc3nc(N4CCOCC4)nc4c3ncn4-c3ccsc3)[nH]c2c1 [SR-1285] | 4740 nM | 522 nM | 13.4% | –
13 | c1ccc2[nH]c(CNc3nc(N4CCNCC4)nc4c3ncn4-c3ccsc3)nc2c1 [SR-1292] | 16 nM | 3 nM | 14.5% | –
14 | CN1CCN(c2nc(NCc3nc4ccccc4[nH]3)c3ncn(-c4ccsc4)c3n2)CC1 [SR-1294] | 68 nM | 11 nM | 14.1% | –
15 | Cn1c(CNc2nc(N3CCOCC3)nc3c2ncn3-c2ccsc2)nc2ccccc21 [SR-2001] | 125 nM | 22 nM | 1.7% | –
16 | O=[N+]([O-])c1cccc2[nH]c(CNc3nc(N4CCOCC4)nc4c3ncn4-c3ccoc3)nc12 [SR-2007] | 345 nM | 18 nM and 19 nM | 81.1% | –

Continued, in another order:

Row | IC50 [4] | IC50 [5] | Compound | % Inhibition, Wee1 Degradation [2] | also measured
17 | 401 nM | 46 nM | c1ccc2[nH]c(CNc3nc(N4CCOCC4)nc4c3ncn4C3CCCC3)nc2c1 [SR-2149] | 6.1% | –
18 | 69 nM | 10 nM | CS(=O)(=O)c1ccc2[nH]c(CNc3nc(N4CCOCC4)nc4c3ncn4-c3ccsc3)nc2c1 [SR-2797] | – | –
19 | 57 nM | 16 nM | CS(=O)(=O)c1cccc2[nH]c(CNc3nc(N4CCOCC4)nc4c3ncn4-c3ccsc3)nc12 [SR-2805] | – | –
20 | 298 nM | 29 nM | COc1ccc2[nH]c(CNc3nc(N4CCN(C)CC4)nc4c3ncn4-c3ccoc3)nc2c1 [SR-2848] | – | –
21 | 182 nM | 11 nM | CN1CCN(c2nc(NCc3nc4cc(Cl)ccc4[nH]3)c3ncn(-c4ccoc4)c3n2)CC1 [SR-2849] | – | GI50 [6]: 17 nM; GI50 [7]: 113 nM; GI50 [8]: 19 nM; GI50 [9]: 130 nM; GI50 [10]: < 10 nM; GI50 [11]: 25 nM
22 | 129 nM | 23 nM | Clc1ccc2[nH]c(CNc3nc(N4CCOCC4)nc4c3ncn4-c3ccoc3)nc2c1 [SR-2850] | – | –
23 | 216 nM | 20 nM | CN1CCN(c2nc(NCc3nc4cc(F)ccc4[nH]3)c3ncn(-c4ccoc4)c3n2)CC1 [SR-2866] | – | –
24 | 82 nM | 5 nM | Clc1ccc2[nH]c(CNc3nc(N4CCNCC4)nc4c3ncn4-c3ccoc3)nc2c1 [SR-2889] | – | GI50 [6]: < 10 nM; GI50 [7]: 24 nM; GI50 [8]: < 10 nM; GI50 [9]: 17 nM; GI50 [10]: < 10 nM; GI50 [11]: < 10 nM
25 | 809 nM | 4 nM | Fc1cccc(-n2cnc3c(NCc4nc5cc(Cl)ccc5[nH]4)nc(N4CCNCC4)nc32)c1 [SR-2890] | – | GI50 [6]: 41 nM; GI50 [7]: 207 nM; GI50 [8]: 46 nM; GI50 [9]: 182 nM; GI50 [10]: 12 nM; GI50 [11]: 29 nM
26 | 782 nM | 11 nM | COc1ccc2[nH]c(CNc3nc(N4CCNCC4)nc4c3ncn4-c3ccoc3)nc2c1 [SR-2891] | – | GI50 [6]: 49 nM; GI50 [7]: 321 nM; GI50 [8]: 24 nM; GI50 [9]: 174 nM; GI50 [10]: < 10 nM; GI50 [11]: 30 nM
